What was measured:
[1] = target: T1, human kappa opioid receptor (Homo sapiens, UniProt P41145); assay: biochemical; format: binding
T1 construct: expressed in transfected cells; host or cells: Chinese hamster ovary cells (CHO-hKOR), membranes

[2] = target: T1, human kappa opioid receptor; assay: biochemical; details: for Emax: 1 h, read-out: Efficacy

T1 sequence (P41145 whole entry): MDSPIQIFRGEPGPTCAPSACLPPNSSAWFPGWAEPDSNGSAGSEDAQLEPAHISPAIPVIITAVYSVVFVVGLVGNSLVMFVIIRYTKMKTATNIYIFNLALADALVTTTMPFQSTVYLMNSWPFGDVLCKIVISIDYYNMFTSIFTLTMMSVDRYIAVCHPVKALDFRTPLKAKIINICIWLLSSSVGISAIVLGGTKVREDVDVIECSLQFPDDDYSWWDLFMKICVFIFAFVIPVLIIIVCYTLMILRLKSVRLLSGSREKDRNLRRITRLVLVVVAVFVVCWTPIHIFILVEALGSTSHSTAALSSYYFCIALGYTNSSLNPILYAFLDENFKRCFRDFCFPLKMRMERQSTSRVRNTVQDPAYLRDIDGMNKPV

SMILES	Ki [1]	EC50 [2]	Emax [2]
CCCO[C@H]1C[C@@H](C(=O)OC)[C@]2(C)CC[C@H]3C(=O)O[C@H](c4ccoc4)C[C@]3(C)C2C1=O (stereo partly shown) [Compound 16, 2-propoxy-salvinorin B]	28.7 ± 3 nM	67.4 ± 9.9 nM	100%
CCC(=O)O[C@H]1C[C@@H](C(=O)OC)[C@]2(C)CC[C@H]3C(=O)O[C@H](c4ccoc4)C[C@]3(C)C2C1=O (stereo partly shown) [Compound 2, 2-propionyl-salvinorin B]	7.2 ± 0.5 nM	20.4 ± 3.4 nM	94%
C#CCCCCOC(=O)C1CC(OC(C)=O)C(=O)C2C1(C)CCC1C(=O)OC(c3ccoc3)CC12C (stereo not shown) [Compound 51]	679 ± 112 nM	224 ± 4 nM	104 ± 16.5%
CCCC(=O)O[C@H]1C[C@@H](C(=O)OC)[C@]2(C)CC[C@H]3C(=O)O[C@H](c4ccoc4)C[C@]3(C)C2C1=O (stereo partly shown) [Compound 3, 2-butyryl-salvinorin B]	4.9 ± 0.6 nM	9.9 ± 0.6 nM	97%
CC(=O)OC1CC(C(=O)NC(C)C(=O)OCc2ccccc2)C2(C)CCC3C(=O)OC(c4ccoc4)CC3(C)C2C1=O (stereo not shown) [Compound 98]	14.2 ± 0.8 nM	46.7 ± 7.3 nM	95%
CCN[C@@H]1C[C@@H](C(=O)OC)[C@]2(C)CC[C@H]3C(=O)O[C@H](c4ccoc4)C[C@]3(C)C2C1=O (stereo partly shown) [Compound 18, 2-(N-ethylamino)-salvinorin]	28.9 ± 1 nM	68.9 ± 5.3 nM	–
COC(=O)[C@@H]1C[C@H](OC)C(=O)C2[C@@]1(C)CC[C@H]1C(=O)O[C@H](c3ccoc3)C[C@]21C (stereo partly shown) [Compound 4, 2-methoxy-salvinorin B]	220 ± 12 nM	389 ± 76 nM	98%
CCCCO[C@H]1C[C@@H](C(=O)OC)[C@]2(C)CC[C@H]3C(=O)O[C@H](c4ccoc4)C[C@]3(C)C2C1=O (stereo partly shown) [Compound 13, 2-n-butoxy-salvinorin B]	35.8 ± 5.1 nM	104 ± 17 nM	–
CCOC(=O)O[C@H]1C[C@@H](C(=O)OC)[C@]2(C)CC[C@H]3C(=O)O[C@H](c4ccoc4)C[C@]3(C)C2C1=O (stereo partly shown) [Compound 30]	> 78.9 nM	> 1120 nM	–
COC(=O)C1=CC(=O)C=C2[C@@]1(C)CC[C@H]1C(=O)O[C@H](c3ccoc3)C[C@]21C [Compound 70]	> 616 nM	> 5150 nM	–
CCOC(=O)C1CC(OC(C)=O)C(=O)C2C1(C)CCC1C(=O)OC(c3ccoc3)CC12C (stereo not shown) [Compound 34]	365 ± 26 nM	94.4 ± 4.1 nM	110 ± 6.4%
COC(=O)C1CC(N(C)C)C(=O)C2C1(C)CCC1C(=O)OC(c3ccoc3)CC12C (stereo not shown) [Compound 211a, 2-(N,N-dimethyl)-salvinorin]	168 ± 10 nM	240 ± 23 nM	110%
CNC(=O)O[C@H]1C[C@@H](C(=O)OC)[C@]2(C)CC[C@H]3C(=O)O[C@H](c4ccoc4)C[C@]3(C)C2C1=O (stereo partly shown) [Compound 10, 2-(O—(N-methyl)formamide)-salvinorin B]	83 ± 9 nM	201 ± 10 nM	81%
COC(=O)[C@@H]1C[C@H](OC(C)=O)C(=O)C2[C@@]1(C)CC[C@H]1C(=O)OC(C3CCOC3)C[C@]21C (stereo partly shown) [Compound 62]	19.3 nM	68.3 nM	117 ± 4.7%
COC(=O)C1CC(N(C)C(C)=O)C(=O)C2C1(C)CCC1C(=O)OC(c3ccoc3)CC12C (stereo not shown) [Compound 214a, 2-(N-methylacetamide)-salvinorin]	3.2 ± 0.1 nM	2.4 ± 0.7 nM	103%
COC(=O)C1CC(NC(C)=O)C(=O)C2C1(C)CCC1C(=O)OC(c3ccoc3)CC12C (stereo not shown) [Compound 212a, 2-(acetamide)-salvinorin]	149 ± 1 nM	188 ± 2 nM	–
COC(=O)[C@@H]1C[C@@H](N)C(=O)C2[C@@]1(C)CC[C@H]1C(=O)O[C@H](c3ccoc3)C[C@]21C (stereo partly drawn) [Compound 207b, 2-epi-aminosalvinorin]	223 ± 123 nM	1370 ± 155 nM	84%
COC(=O)[C@@H]1C[C@H](OC(=O)[C@H](C)N(C)C)C(=O)C2[C@@]1(C)CC[C@H]1C(=O)O[C@H](c3ccoc3)C[C@]21C (stereo partly shown) [Compound 92]	197 ± 19 nM	539 ± 11 nM	90%
